#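 Results reflect a 48-hour exposure of cells in 96-well plates to compound at five concentrations. TGI marks complete inhibition of growth.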
# Tests used:
# Assay in all cases: NCI tumour cell line growth inhibition, 48 h
# [1] = system: KM20L2 colon
# [2] = system: SF-539 CNS
# [3] = system: HCT-116 colon
# [4] = system: NCI-H460 lung
# [5] = system: M19-MEL melanoma
# [6] = system: ACHN renal
# [7] = system: SK-MEL-2 melanoma
# [8] = system: SNB-75 CNS
# [9] = system: UO-31 renal
# [10] = system: HOP-62 NSCLC
# [11] = system: LXFL 529 NSCLC
# [12] = system: DMS 273 small cell lung
# [13] = system: SN12C renal
# [14] = system: SF-295 CNS
# [15] = system: OVCAR-8 ovarian
# [16] = system: SR leukemia
# [17] = system: HT29 colon
# [18] = system: SNB-78 CNS
# [19] = system: DLD-1 colon
# [20] = system: TK-10 renal
# [21] = system: XF 498 CNS
# [22] = system: COLO 205 colon
# [23] = system: KM12 colon
# [24] = system: SF-268 CNS
# [25] = system: SNB-19 CNS
# [26] = system: HOP-92 NSCLC
# [27] = system: NCI-H522 lung
# [28] = system: RXF-631 renal
# [29] = system: OVCAR-3 ovarian
# [30] = system: HCT-15 colon
# [31] = system: MOLT-4 leukemia
# [32] = system: A549 NSCLC
# [33] = system: SW-620 colon
# [34] = system: IGROV1 ovarian
# [35] = system: CAKI-1 renal
# [36] = system: M14 melanoma
# [37] = system: OVCAR-4 ovarian
# [38] = system: K-562 leukemia
# [39] = system: UACC-62 melanoma
# [40] = system: NCI-H23 lung
# [41] = system: OVCAR-5 ovarian
# [42] = system: HL-60(TB) leukemia
# [43] = system: LOX IMVI melanoma
# [44] = system: MALME-3M melanoma
# [45] = system: SK-MEL-28 melanoma
# [46] = system: NCI-H226 lung
# [47] = system: HCC-2998 colon
# [48] = system: RPMI-8226 leukemia
# [49] = system: 786-0 renal
# [50] = system: UACC-257 melanoma
# [51] = system: U251 CNS
# [52] = system: SK-OV-3 ovarian
# [53] = system: SK-MEL-5 melanoma
# [54] = system: CCRF-CEM leukemia
# [55] = system: HOP-18 NSCLC
# [56] = system: RXF 393 renal
# [57] = system: EKVX NSCLC
# [58] = system: DMS 114 small cell lung
smiles,measurement,setting,value
CCOC(=O)C1=C(c2ccccc2)NC(c2ccccc2)=C(C(=O)OCC)c2c1c(=O)cc[nH]c2=O,TGI,[1],> 100 µM
same,TGI,[2],> 100 µM
same,TGI,[3],> 100 µM
same,TGI,[4],> 100 µM
same,TGI,[5],> 100 µM
same,TGI,[6],> 100 µM
same,TGI,[7],> 100 µM
same,TGI,[8],> 100 µM
same,TGI,[9],> 100 µM
same,TGI,[10],> 100 µM
same,TGI,[11],> 100 µM
same,TGI,[12],> 100 µM
same,TGI,[13],> 100 µM
same,TGI,[14],> 100 µM
same,TGI,[15],> 100 µM
same,TGI,[16],> 100 µM
same,TGI,[17],> 100 µM
same,TGI,[18],> 100 µM
same,TGI,[19],> 100 µM
same,TGI,[20],> 100 µM
same,TGI,[21],> 100 µM
same,TGI,[22],> 100 µM
same,TGI,[23],> 100 µM
same,TGI,[24],> 100 µM
same,TGI,[25],> 100 µM
same,TGI,[26],> 100 µM
same,TGI,[27],> 100 µM
same,TGI,[28],> 100 µM
same,TGI,[29],> 100 µM
same,TGI,[30],> 100 µM
same,TGI,[31],> 100 µM
same,TGI,[32],> 100 µM
same,TGI,[33],> 100 µM
same,TGI,[34],> 100 µM
same,TGI,[35],> 100 µM
same,TGI,[36],> 100 µM
same,TGI,[37],> 100 µM
same,TGI,[38],> 100 µM
same,TGI,[39],> 100 µM
same,TGI,[40],> 100 µM
same,TGI,[41],> 100 µM
same,TGI,[42],> 100 µM
same,TGI,[43],> 100 µM
same,TGI,[44],> 100 µM
same,TGI,[45],> 100 µM
same,TGI,[46],> 100 µM
same,TGI,[47],> 100 µM
same,TGI,[48],> 100 µM
same,TGI,[49],> 100 µM
same,TGI,[50],> 100 µM
same,TGI,[51],> 100 µM
same,TGI,[52],> 100 µM
OCCSCC/C(=N\N=C(/CCSCCO)c1ccccc1)c1ccccc1,TGI,[1],> 100 µM
same,TGI,[2],> 100 µM
same,TGI,[4],> 100 µM
same,TGI,[5],> 100 µM
same,TGI,[6],> 100 µM
same,TGI,[7],> 100 µM
same,TGI,[9],> 100 µM
same,TGI,[10],> 100 µM
same,TGI,[11],> 100 µM
same,TGI,[13],> 100 µM
same,TGI,[14],> 100 µM
same,TGI,[15],> 100 µM
same,TGI,[17],> 100 µM
same,TGI,[53],> 100 µM
same,TGI,[18],> 100 µM
same,TGI,[19],> 100 µM
same,TGI,[20],> 100 µM
same,TGI,[21],> 100 µM
same,TGI,[22],> 100 µM
same,TGI,[23],> 100 µM
same,TGI,[24],> 100 µM
same,TGI,[25],> 100 µM
same,TGI,[26],> 100 µM
same,TGI,[28],> 100 µM
same,TGI,[54],> 100 µM
same,TGI,[29],> 100 µM
same,TGI,[30],> 100 µM
same,TGI,[31],> 100 µM
same,TGI,[32],> 100 µM
same,TGI,[33],> 100 µM
same,TGI,[34],> 100 µM
same,TGI,[35],> 100 µM
same,TGI,[36],> 100 µM
same,TGI,[37],> 100 µM
same,TGI,[38],> 100 µM
same,TGI,[39],> 100 µM
same,TGI,[40],> 100 µM
same,TGI,[55],> 100 µM
same,TGI,[56],99.7 µM
same,TGI,[41],> 100 µM
same,TGI,[42],> 100 µM
same,TGI,[43],> 100 µM
same,TGI,[44],> 100 µM
same,TGI,[45],> 100 µM
same,TGI,[46],> 100 µM
same,TGI,[57],> 100 µM
same,TGI,[47],> 100 µM
same,TGI,[48],> 100 µM
same,TGI,[49],> 100 µM
same,TGI,[50],> 100 µM
same,TGI,[51],> 100 µM
same,TGI,[52],> 100 µM
same,TGI,[58],> 100 µM
